# Reference: BindingDB's records for doi:10.1021/jm000443d (University of California At San Diego, 2001)
# Molecular target: Protein kinase C alpha type (Homo sapiens, UniProt P17252)
# Experiment: Inhibition of Protein kinase C alpha
row,Structure (SMILES),IC50
1,O=C(N[C@@H]1COCCCC1OC(=O)c1ccc(C(=O)C2C(O)=CC=CC2C(=O)O)c(O)c1)c1ccc(O)cc1 (stereo not given in full),6.7 nM
2,O=C(N[C@@H]1CS(=O)(=O)CCCC1OC(=O)c1ccc(C(=O)C2C(O)=CC=CC2C(=O)O)c(O)c1)c1ccc(O)cc1 (stereo not given in full),9.6 nM

# These reach a lower IC50. Values come first.
row,IC50,Structure (SMILES)
1,3.3 nM,O=C(N[C@@H]1CSCCCC1OC(=O)c1ccc(C(=O)C2C(O)=CC=CC2C(=O)O)c(O)c1)c1ccc(O)cc1 (stereo not given in full)
2,0.27 nM,O=C(N[C@@H]1CCCCCC1OC(=O)c1ccc(C(=O)C2C(O)=CC=CC2C(=O)O)c(O)c1)c1ccc(O)cc1 (stereo not given in full)
3,0.074 nM,O=C(N[C@@H]1CNCCC[C@H]1OC(=O)c1cc(O)c(C(=O)c2c(O)cccc2C(=O)O)c(O)c1)c1ccc(O)cc1 [Acyclic Balanol Analog (-)-1]
